# According to patent US5654280A, “Pharmaceutical composition” (Perstorp AB, priority 1989, dated 1997):
# Where a name gives a salt, the structure may show the parent alone.
# Assays:
# [1] = target: membrane preparation from rat hearts (binding sites of D-myo-inositol-1,2,6-triphosphate); test: Displacement of tritiated D-myo-inositol-1,2,6-triphosphate from rat heart membrane preparation; settings: rat heart membranes, 60 minutes in ice, 50 mM HEPES pH 7.4
# Experimental: A membrane preparation for binding experiments was prepared at 4° C. Remaining blood was removed from fresh rats hearts (approx. 25 g) and the hearts were minced on chilled plates and blended thoroughly with 20 volumes (v/w) of 0.32M sucrose. The mixture was homogenized using a glass homogenizer followed by centrifugation at 800 g for 10 minutes. The supernatant was thereafter recentrifuged at 21000 g for 20 minutes. The resulting pellets were suspended in 20 volumes of ice cold water before homogenization and centrifugation. The supernatant was collected by pipetting followed by recentrifugation. […]
# The assay mixtures were incubated for 60 minutes in ice and binding reactions were terminated by centrifugation for 5 minutes. The surface of the pellets were washed with 1 ml of iced 50 mM HEPES buffer (pH 7.4) before measuring the incorporated radioactivity by means of a scintillation counter.
# An IC50 value can be determined by calculation of the replacement ratio of the tritiated reference compound at different concentrations of the specific compound. This value represents the concentration needed to replace half the amount of the tritiated reference compound and is expressed as log (conc. of compound). […] Following the above described procedure the binding properties of 1,5-anhydro-D-arabinitol-2,3,4-trisphosphate was determined. […]
# [2] = tested on: binding sites for phosphorylated compounds in membrane preparation from rat brains; test: Displacement of tritiated D-myo-inositol-1,3,4,5-tetraphosphate (IP4) from rat brain membrane preparation; settings: rat brain plasma membrane fragments saturated with tritiated IP4; remaining radioactivity after addition of compound and washing
# Description: A membrane preparation was obtained from rat brains in a way suitable to provide membrane fragments from plasma membranes. From earlier studies these membrane preparations are known to comprise binding sites for phosphorylated compounds. The physiological role of these binding sites are to regulate for example vascular leakage and oedema formation in the body. The degree of binding of a specific compound to these binding sites predicts the efficiency to counteract vascular leakage in vivo.
# The membrane preparation was first saturated with a tritiated control compound. The control compound was D-myo-inositol-1,3,4,5-tetraphosphate (IP4). Addition of a further compound having, increased binding properties, compared to the control compound, will result in a replacement of the control compound and thus in a reduction of the radioactivity in the sample.
# The 1,5-anhydro-D-arabinitol-2,3,4-trisphosphate pentakis (cyclohexylammonium) salt obtained in Example 2 was added to a membrane preparation as described above. After washing, the radioactivity was 30% compared to the control compound (IP4), thus showing a significant binding to the preparation.
Compound,IC50 value (concentration needed to replace half the amount of the tritiated reference compound) [1],radioactivity after washing compared to the control compound (IP4) [2] [%]
"O=P(O)(O)OC1[C@H](OP(=O)(O)O)COC[C@H]1OP(=O)(O)O [1,5-anhydro-D-arabinitol-2,3,4-trisphosphate]",-6.9 log (conc. of compound),
"O=P(O)(O)OC1[C@H](OP(=O)(O)O)COC[C@H]1OP(=O)(O)O [Example 2, 1,5-anhydro-D-arabinitol-2,3,4-trisphosphate pentakis (cyclohexylammonium) salt]",,30
